The values below come from patent US5994361A, “Substituted purinyl derivatives with immunomodulating activity” (priority 1995, dated 1999).

The subject of data set [1] is cytotoxic T lymphocytes, P815 target cells. Put plainly: Cytotoxic T lymphocytes (CTL) assay. Type of data set: cell-based, C57B1/6 mice and DBA/2 mice. Conditions: for activation at 10 µM / activation at 0.1 µM / activation at 0.001 µM: Mus musculus, P815, 120 h, read-out: CTL activity, % increase compared to IL2 (100%); for activation at 10 µM: at 10^-5 M; for activation at 0.001 µM: at 10^-9 M. The protocol:
(§1) Mixed lymphocyte reaction is an in vitro counterpart of the allograft rejection. Briefly, T cell response was obtained when cells taken from two inbred strains from two outbred individuals of any species were mixed in vitro in culture.
(§2) After 4 days incubation, ^3 H thymidine uptake and cytotoxicity assay (CTL) were performed.
(§3) 3 C57B1/6 mice and 3 DBA/2 mice wre killed and lymphocytes prepared using lympholyte M. The cell concentration was adjusted to 10×10^6 cell/ml for each lysis. DBA/2 cells were irradiated with 3000 Rads. 1 ml of the C57 cells+1 ml of the DBA/2 cells+1 ml of the drug at 3 different concentrations were incubated together for 5 days. Positive control was IL-2 at 15 ng/ml final. After 5 days, the CTL and MLR tests were carried out.
P815 target cells were labelled with Cr^51. After labelling, the cells were resuspended to 5×10^4 cells/ml.
100 μl of target cells+100 μl Of T cells were incubated for 4 hrs and then 100 μl of supernatant was counted using a gamma counter.

Data set [2] has as its system T cell activity (ConA), spleen mononuclear leukocytes. Kind of data set: Mitogenic proliferation on spleen cell suspension, T (ConA). The class given is cell-based, C57BL-6 mice. An excerpt: (§4) Mitogenic lectin (mitogen) is a protein which binds and cross-links specific cells surface carbohydrate determinants, and will polyclonally stimulate lymphoid cells. Lymphocyte activation by either antigens or mitogens results in intracellular changes and the subsequent development into a lymphoblast. Mitogenic stimulation of lymphocytes in vitro is believed to mimic the series of events which occur in vivo following their stimulation by specific antigens. PHA, ConA, and PWM, LPS mitogens can be used as a measurement of T cell and B cell activity, respectively.
(§5) Briefly, spleen mononuclear leukocytes from C57BL-6 mice were incubated in the presence or absence of mitogens with or without tested drugs. After 72 hours or 5 days, ^3 H thymidine incorporation was recorded as an indication of cell transformation and proliferation.
(§6) 100 μl of a suspension of 2×10^6 cells/ml (2×10^5 cells/well) were incubated in presence of PHA or ConA or PWM or LPS at the following concentrations:
(§7) PHA=0.01% final concentration-0.001%
(§8) Cells were incubated in presence or absence of drugs for 72 hours. 0.5 or 1 μCi of tritiated thymidine (^3 H) was added per well the last 18 or 6 hours of incubation respectively. Cells were harvested and counted on a Beta counter.

In data set [3] the test system is T cell response (mixed lymphocyte reaction). Kind of data set: Mixed lymphocyte reaction (MLR) assay. Type of data set: cell-based, C57B1/6 mice and DBA/2 mice. The protocol:
as §1, §2, §3
The cells were resuspended and 100 μl of cell suspension were deposited in each of the 96 wells in the plate, 50 μl of Thymidine at 20 μCi/ml was added for 6 hrs. The cells were then collected and counted using a beta counter.

The subject of data set [4] is B cell activity (LPS), spleen mononuclear leukocytes. Kind of data set: Mitogenic proliferation on spleen cell suspension, B (LPS). Type of data set: cell-based, C57BL-6 mice.
Description: as §4, §5, §6, §7, §8

For a further data set, the system named is immune system. Conditions: prior art; cited from earlier work.
For data set [5] the following is noted: prior art; cited from earlier work.
Where [6] appears, read: at 10^-12 - 10^-6 (M), 4320 min.

Like-named read-outs stand apart in the source and are kept apart here.

For the molecule `CN(C)c1ncnc2c1ncn2CCCCCOC(=O)N[C@@H](CCCNC(=N)N)C(=O)O` [Compound #2, N,N-Dimethylaminopurinyl Pentoxycarbonyl L-Arginine], in data set [1] (concentration not given), the “CTL activity, % increase compared to IL2 (100%)” value (“CTL activity, % increase” below) is on record as 0 (less than 20%). For the same molecule, the “T (ConA) mitogenic proliferation” value in data set [2] (at 10^-8 - 10^-5 (M), 4320 min) was 2 - 4 ×. The MLR in data set [3] (at 10^-7 - 10^-5 M) was 1.5 - 2 ×. Besides, the “B (LPS) mitogenic proliferation” value in data set [4] (concentration not given) stood at 0.
`CNc1ncnc2c1ncn2CCCCCOC(=O)N[C@H](CCCNC(=N)N)C(=O)O` [Compound #3, N-Monomethylaminopurinyl Pentoxycarbonyl D-Arginine]: the activation at 10 µM in data set [1] was 20 to 40%. Further, the “T (ConA) mitogenic proliferation” value in data set [2] (setting [6]) is 2 - 6 ×. Also, in data set [3] (at 10^-9 - 10^-5 M), the MLR worked out at 1.5 ×. In addition, the “B (LPS) mitogenic proliferation” value in data set [4] (at 10^-8 - 10^-6 (M), 4320 min) is on record as 2 - 2.5 ×.
Turning to `CNc1ncnc2c1ncn2CCCCCO` [Compound #3a, N-(6-N-Methyl-Aminopurin-9-yl)-pentanol], the “CTL activity, % increase” value in data set [1] (at 10^-9 - 10^-7 M) is on record as “+++ (60-80%)”. For the same molecule, in data set [3] (at 10^-9 - 10^-5 M), the MLR is recorded as 1.5 - 2.9 ×.
On to `N=C(N)NCCC[C@@H](NC(=O)OCCCCCn1cnc2c(N)ncnc21)C(=O)O` [Compound #5, Aminopurinyl Pentoxycarbonyl D-Arginine], for which, in data set [1] (at 10^-7 M), the activation at 0.1 µM was in the range of 20 to 40%. The MLR in data set [3] (at 10^-7 - 10^-5 M) was 1.5 - 2 ×.
Regarding `Nc1ncnc2c1ncn2CCCCCO` [Compound #5a, N-(6-Aminopurin-9-Yl) 5-Pentanol], the “CTL activity, % increase” value in data set [1] (at 10^-7 - 10^-5 M) is listed as “++ (40-60%)”. Also, in data set [3] (at 10^-9 - 10^-6 M, 7200 min), the MLR is 1.5 - 2 ×.
On to `N=C(N)NCCC[C@H](NC(=O)OCCCCCn1cnc2c(N)ncnc21)C(=O)O` [Compound #6, Aminopurinyl Pentoxycarbonyl L-Arginine], for which the activation at 0.001 µM in data set [1] lay in the range of 60 to 80%. Further, the MLR in data set [3] (at 10^-9 - 10^-5 M) is 1.5 - 3 ×.
Regarding `N=C(N)NCCC[C@@H](NC(=O)OCCCCCn1cnc2c(NN)ncnc21)C(=O)O` [Compound #7, Hydrazinopurinyl Pentoxycarbonyl D-Arginine], the activation at 0.001 µM in data set [1] fell in the range of 60 to 80%. The “T (ConA) mitogenic proliferation” value in data set [2] (at 10^-12 - 10^-8 (M), 4320 min) is listed as 2 - 6 ×. The MLR in data set [3] (at 10^-9 - 10^-6 M, 7200 min) is 1.5 - 2 ×. Further, the “B (LPS) mitogenic proliferation” value in data set [4] (concentration not given) is 0.
Turning to `NNc1ncnc2c1ncn2CCCCCO` [Compound #7a, N-(6-Hydrazinopurin-9-yl) 5-Pentanol], the activation at 0.001 µM in data set [1] (preliminary result) was over 80%. The MLR in data set [3] (at 10^-9 - 10^-5 M, preliminary result) was 2 ×.
For `N=C(N)NCCC[C@H](NC(=O)OCCCCCn1cnc2c(NN)ncnc21)C(=O)O` [Compound #8, Hydrazinopurinyl Pentoxycarbonyl L-Arginine], in data set [1], the activation at 0.001 µM was over 80%. Moreover, in data set [3] (at 10^-9 - 10^-5 M), the MLR is recorded as 1.5 - 2 ×.
With `N=C(N)NCCC[C@@H](NC(=O)OCCCCCn1cnc2c(Cl)ncnc21)C(=O)O` [Compound #9, Chloropurinyl Pentoxycarbonyl D-Arginine], in data set [2] (setting [6]), the “T (ConA) mitogenic proliferation” value was 2 - 3.5 ×.
For the molecule `N=C(N)NCCC[C@@H](NC(=O)OCCCCCn1cnc2c(=O)[nH]cnc21)C(=O)O` [Compound #11, Hydroxypurinyl Pentoxycarbonyl D-Arginine], the activation at 0.1 µM in data set [1] (at 10^-7 M) fell in the range of 40 to 60%. In addition, the MLR in data set [3] (at 10^-7 - 10^-5 M) is on record as 2 - 2.5 ×.
Turning to `OCCCCCn1cnc2cncnc21` [Compound #19, N-9-purinyl-5-pentanol], the activation at 0.1 µM in data set [1] (at 10^-7 M, preliminary result) is 40 to 60%. The molecule further showed an MLR in data set [3] (concentration not given, preliminary result) of 0.
As to `N=C(N)NCCC[C@@H](NC(=O)OCCCCCn1cnc2cncnc21)C(=O)O` [Compound #20, N-9-purinyl-7-pentyloxycarbonyl-D-arginine], the activation at 10 µM in data set [1] fell in the range of 40 to 60%.
Turning to `COc1ncnc2c1ncn2CCCCCO` [Compound #51, N-(6-methoxypurin-9-yl) 5-pentanol], in data set [1] (at 10^-7 M), the activation at 0.1 µM fell in the range of 40 to 60%. Further, in data set [3] (at 10^-9 - 10^-6 M, 7200 min), the MLR is 1.5 - 2 ×.
Take `OCCCCCn1cnc2c(S)ncnc21` [Compound #59, N-(6-Mercaptopurin-9-yl)-pentanol]: the activation at 0.001 µM in data set [1] was 40 to 60%. For the same molecule, the MLR in data set [3] (at 10^-9 - 10^-5 M) was 2 - 2.4 ×.
With `CSc1ncnc2c1ncn2CCCCCO` [Compound #60, N-(6,-N-Methylthiopurin-9-yl)-pentanol], the activation at 0.1 µM in data set [1] (at 10^-7 M) was 20 to 40%. Moreover, the MLR in data set [3] (at 10^-9 - 10^-5 M) is 1.7 - 2 ×.
Consider `OCCCCCn1cnc2c(Cl)ncnc21` [Compound #III, N-(6-Chloropurin-9-yl)-5-pentanol], for which the activation at 0.1 µM in data set [1] (at 10^-7 M) lay within 60 to 80%. Moreover, the MLR in data set [3] (at 10^-9 - 10^-5 M) is 1.5 - 2.5 ×.
On to `CN(C)c1ncnc2c1ncn2CCCCCO` [Compound #V, N-(6-N,N-Dimethylaminopurin-9-yl)-pentanol], for which, in data set [1] (at 10^-7 M), the activation at 0.1 µM lay in the range of 60 to 80%. The MLR in data set [3] (at 10^7 - 10^5 M (so in the source)) was 1.5 - 2 ×.
As to `O=c1[nH]cnc2c1cnn2CCCCCO` [ST 689, allopurinol pentanol, reference compound], the “CTL activity, % increase” value in data set [1] (at 10^-7 M, preliminary result) is “++++ (80+)”. Besides, in the data set with immune system, the immunomodulating activity result is given as “not significantly more immunostimulatory than ST 789”. The molecule also registered an MLR in data set [3] (at 10^-5 M, preliminary result, 10 µM) of 1.6 ×.
As for `N=C(N)NCCC[C@H](NC(=O)OCCCCCn1cnc2c(=O)[nH]cnc21)C(=O)O` [ST 789, reference compound], in data set [1] (at 10^-7 M), the activation at 0.1 µM lay in the range of 40 to 60%. In addition, the “T (ConA) mitogenic proliferation” value in data set [2] (concentration not given) worked out at 0. Besides, in the data set with immune system, the “stimulation of cytotoxic T lymphocytes (CD8+ T cells)” value is reported as “no indication”. Also, the MLR in data set [3] (at 10^-9 - 10^-5 M) is recorded as 2 - 3 ×. Also, the “B (LPS) mitogenic proliferation” value in data set [4] (at 10^-8 - 10^-5 (M), 4320 min) is recorded as 1.5 - 3 ×.
`Oc1ncnc2[nH]ncc12` [allopurinol]: the immunomodulating activity result in the data set with immune system is “immunosuppressive”.
Regarding isoprinosine, the toxicity entry in data set [5] is on record as “very nontoxic”. For the same molecule, the immunomodulating activity entry in the data set with immune system is recorded as “not an effective immunomodulator”.
